Experimental data from patent US7189751B2, “Oxa(thia)zolidine compounds, process for preparation thereof and anti-inflammatory agents” (Nippon Soda Co., Ltd., priority 2001, dated 2007).

Molecular target: T1, IV-cPLA(2) in activated U937 cells (Homo sapiens, UniProt P47712)
T1 sequence (P47712 1-749): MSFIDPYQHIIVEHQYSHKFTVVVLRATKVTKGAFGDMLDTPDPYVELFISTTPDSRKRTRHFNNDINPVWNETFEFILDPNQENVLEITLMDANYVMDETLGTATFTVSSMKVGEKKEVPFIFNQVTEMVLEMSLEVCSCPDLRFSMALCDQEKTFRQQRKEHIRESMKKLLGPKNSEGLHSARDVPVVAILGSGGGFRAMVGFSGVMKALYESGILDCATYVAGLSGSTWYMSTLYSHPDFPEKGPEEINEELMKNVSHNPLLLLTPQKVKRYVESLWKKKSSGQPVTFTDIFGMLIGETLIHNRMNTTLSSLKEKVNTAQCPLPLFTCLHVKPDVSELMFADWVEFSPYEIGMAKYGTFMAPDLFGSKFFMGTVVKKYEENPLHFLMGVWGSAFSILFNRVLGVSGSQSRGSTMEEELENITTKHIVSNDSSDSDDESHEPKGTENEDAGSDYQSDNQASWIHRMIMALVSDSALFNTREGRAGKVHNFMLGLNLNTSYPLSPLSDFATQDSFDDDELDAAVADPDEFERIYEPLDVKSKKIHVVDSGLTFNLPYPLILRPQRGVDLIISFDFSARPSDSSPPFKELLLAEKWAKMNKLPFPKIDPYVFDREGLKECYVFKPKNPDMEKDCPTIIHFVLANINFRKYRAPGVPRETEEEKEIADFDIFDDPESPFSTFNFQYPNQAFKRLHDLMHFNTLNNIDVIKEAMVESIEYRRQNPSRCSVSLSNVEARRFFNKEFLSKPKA
Test: PLA(2) activity: hydrolysis of bis-BODIPY FL C11-PC in TPA/A23187-activated U937 cells
Assay type: cell-based
Settings: U-937; Concentration 10 μM; inflammatory activated PLA(2) activity, U937 cells
Protocol: The PLA(2) activity was measured by quantitatively analyzing the fluorescent product of hydrolysis from 1,2-bis-(4,4-difluoro-5,7-dimethyl-4-bora-3a,4a-diaza-s-indecene-3-undecanoyl)-sn-glycero-3-phosphocholine (hereinafter referred to bis-BODIPY®FL C11-PC, Molecular probes, Inc., B-7701) using activated U937 cells (human monoblastic lymphoma cell line) by inflammatory stimulus (Meshulam, T. et al., The journal of Biological Chemistry 267 (30): 21465–21470 (1992); and Solito, E. et al., British Journal of Pharmacology 124: 1675–1683(1998).). The substrate bis-BODIPY®FL C11-PC is incorporated into cellular membranes, the proximity of the BODIPY®FL fluorophores on adjacent phospholipid acyl chains causes fluorescence self-quenching. Separation of the fluorophores upon hydrolytic cleavage of one of the acyl chains by PLA(1) or the PLA(2) results in increased fluorescence. […]
The test compound was dissolved with DMSO at 30 mM, and the solution diluted with either DMSO or the Assay medium before addition into the reaction mixture. […] The increased fluorescence of the hydrolysis product by the enzyme was determined by measuring the fluorescence emission intensity at 535 nm with excitation at 485 nm from the top side of each plate at 37° C., using a Multi Functional Microplate Reader SPECTRA FLUOR PLUS (TECAN Austria GmbH). […]

inhibition at 10 µM: 99%
Structure (SMILES): CCOC(=O)C(=C1N[C@@H](C)[C@H](c2ccc(Cl)cc2)S1)[N+](=O)[O-] (relative stereo) [Compound 2-29, Trans-5-(4-chlorophenyl)-4-methyl-2-(1-ethoxycarbonyl-1-nitromethylene)-thiazolidine]
